Results on 2 substances are retold here after patent US11278561B2, “Combination treatment for hematological cancers” (Geron Corporation, priority 2016, dated 2022).

What all share (type): cell-based
Data set [1] concerns MOLM-13 cells. Description: Annexin V / Propidium Iodide flow cytometry apoptosis assay in MOLM-13. To be noted: for Loewe Excess: ABT-199 nM: r7 1000, r8 500, r9 100, r10 20, r11 5, r12 1, r13 0.2, r14 0.04, r15 0; for Excess over HSA: MOLM-13, 96 hours, ABT-199 0 nM, r7 Mismatch 50 μM, r8 Mismatch 25 μM, r9 Non-complimentary 50 μM, r10 Non-complimentary 25 μM. Further details: key to Excess over HSA / Excess over BLISS: excess = combination minus HSA/Bliss expected, in % apoptotic cells. On the procedure:
(§1) AML tumor cells KG-1 (ATCC #CCL-246) and MOLM-13 (DSMZ #ACC554) were plated at a density of ˜20,000 cells per well on 96-well polystyrene U-bottom tissue culture plates (Corning catalog #353777) in RPMI-1640 (ThermoFisher catalog #11875-085) supplemented with 10% fetal bovine serum (ThermoFisher catalog #16140-089) and 1% penicillin/streptomycin antibiotic cocktail (ThermoFisher catalog 15140-122) and grown in a 37° C. incubator under humidified 5% CO2 atmosphere.
(§2) At 48 and 96 hours, cells were measured for healthy, early apoptotic and apoptotic populations with an Annexin V (interior cell membrane stain) plus Propidium Iodide (PI, DNA binding dye) flow cytometry assay kit (BioLegend catalog 640914). Annexin V detects the externalization of phosphatidylserine in apoptotic cells using recombinant annexin V conjugated to green-fluorescent FITC dye and dead cells using Propidium iodide (PI). Propidium iodide stains necrotic cells with red fluorescence. After treatment with both probes, early apoptotic cells show green fluorescence, apoptotic (dead) cells show red and green fluorescence, and live cells show little or no fluorescence. […] Cells were stained for 30 minutes at 4° C. in the dark, followed by 3× washes with PBS and suspension in FACs Stain Buffer (BD catalog 554657) prior to interrogation on a BD FACs Canto flow cytometer for forward scatter, side scatter, FITC, and PE channels. […] The percentage of apoptotic cells (double labeled) was used to calculate combination effects using both the Highest Single Agent (HSA) and Bliss additivity models (J Tang et al. Frontiers in Pharmacology. 2015; 6 (181)).
(§3) Using the HSA model, the cytotoxic effect of the combined condition (“C”) was compared to the effect generated by each of the single agent controls (“A” or “B”) for the respective dose in the combination: Excess over HSA=C−A (if A>B) or C−B (if A<B)
(§4) The Bliss model performs a similar comparison, but instead of the highest effect of single agent, the Bliss model subtracts from the combination a value equal to the sum of each single agent minus their product: Excess over Bliss=C−[(A+B)−(A*B)]
Treated cells were analyzed by Flow cytometry for Annexin V and Propidium Iodide staining as described previously. Events gated in the apoptotic population (Annexin V+/Propidium Iodide+) were used to determine synergy scores for the combination matrix. Combination data analysis was generated by the Horizon Chalice™ Analyzer Software (Horizon Discovery Group, Cambridge, UK). […] Mismatch and non-complimentary controls were not utilized in this experiment.
Combination conditions undergo isobolar analysis to generate a combination index and graphically represent the behavior of a combination with synergistic pairs falling below the isobologram and antagonistic falling above it (additive combinations would be expected to fall on the line). The Horizon Chalice™ Analyzer Software additionally provides a synergy score, with values greater than 1 indicating synergy.
For orientation: Flow cytometry measures light scatter and fluorescence of single cells or particles in a stream.

For data set [2], the system named is MOLM-13 cells. Described as above. Further details: key to Excess over BLISS: Excess over Bliss = C−[(A+B)−(A*B)], % apoptotic cells; key to Excess over HSA: excess = combination minus HSA/Bliss expected, in % apoptotic cells. To be noted: for Loewe Excess: MOLM-13, 48 hour treatment, ABT-199 nM: r7 1000, r8 500, r9 100, r10 20, r11 5, r12 1, r13 0.2, r14 0.04, r15 0; for Excess over BLISS / Excess over HSA: ABT-199 0 nM, r7 Mismatch 50 μM, r8 Mismatch 25 μM, r9 Non-complimentary 50 μM, r10 Non-complimentary 25 μM.

Data set [3] has as its system KG-1 cells. Description: Annexin V / Propidium Iodide flow cytometry apoptosis assay in KG-1. Also noted: key to Excess over HSA / Excess over BLISS: excess in % apoptotic (Annexin V/PI double-labeled) cells over HSA/Bliss. To be noted: ABT-199 0 nM, r7 Mismatch 50 μM, r8 Mismatch 25 μM, r9 Non-complimentary 50 μM, r10 Non-complimentary 25 μM. The protocol:
as §1, §2, §3, §4

{PalmAG} = palmitoyl amide conjugated through an aminoglycerol linker to the 5'-thiophosphate; {PalmN} = palmitoyl amide conjugated through the terminal 3'-amino group; [NPS] = N3'→P5' thiophosphoramidate internucleoside linkage; {NH2} = amino group

Take “Mismatch: control oligonucleotide 5′-R-TAGGTGTAAGCAA-NH2-3′ (SEQ ID NO: 2), palmitoyl amide conjugated NPS-linked oligonucleotide (all [NPS], 5' {PalmAG}, 3' {NH2}, sugars by position and methylation of C not given here)”: the “Loewe Excess” value in data set [1] (MOLM-13, 48 hour treatment, Mismatch 1 μM) was 4; in data set [1] (MOLM-13, 48 hour treatment, Mismatch 5 μM) it was 2; in data set [1] (MOLM-13, 48 hour treatment, Mismatch 25 μM), 1; in data set [1] (MOLM-13, 48 hour treatment, Mismatch 50 μM), 0; in data set [1] (MOLM-13, 48 hour treatment, Mismatch 75 μM), 0; in data set [1] (MOLM-13, 96 hour treatment, Mismatch 1 μM) it was 1. In addition, the “Loewe Excess” value in data set [1] (MOLM-13, 96 hour treatment, Mismatch 5 μM) is listed as 0; in data set [1] (MOLM-13, 96 hour treatment, Mismatch 10 μM), −1; in data set [1] (MOLM-13, 96 hour treatment, Mismatch 25 μM), −2; in data set [1] (MOLM-13, 96 hour treatment, Mismatch 50 μM), −1; in data set [1] (MOLM-13, 96 hour treatment, Mismatch 75 μM), 1; in data set [2] (Mismatch 10 μM), −1. The “Excess over HSA” value in data set [1] worked out at 0; in data set [2] (MOLM-13, 48 hours), 0; in data set [3] (KG-1, 48 hours), 0; in data set [3] (KG-1, 96 hours), 0. In addition, the “Excess over BLISS” value in data set [2] (MOLM-13, 48 hours) is 0; in data set [2] (MOLM-13, 96 hours) it was 0; in data set [3] (KG-1, 48 hours), 0; in data set [3] (KG-1, 96 hours) it was 0.

Consider “Non-complimentary: control oligonucleotide 5′-AACAGATTGGGAT-R-3′ (SEQ ID NO: 3), palmitoyl amide on the terminal 3′ amino group of an NPS oligonucleotide (all [NPS], 3' {PalmN}, sugars by position and methylation of C not given here)”, for which the “Loewe Excess” value was 6 in data set [1] (MOLM-13, 48 hour treatment, Non-Complimentary 1 μM); −2 in data set [1] (MOLM-13, 48 hour treatment, Non-Complimentary 10 μM); −2 in data set [1] (MOLM-13, 48 hour treatment, Non-Complimentary 50 μM); 1 in data set [1] (MOLM-13, 48 hour treatment, Non-Complimentary 75 μM); 1 in data set [1] (MOLM-13, 96 hour treatment, Non-Complimentary 1 μM); 0 in data set [1] (MOLM-13, 96 hour treatment, Non-Complimentary 5 μM). Moreover, the “Loewe Excess” value in data set [1] (MOLM-13, 96 hour treatment, Non-Complimentary 10 μM) is −1; in data set [1] (MOLM-13, 96 hour treatment, Non-Complimentary 25 μM), −1; in data set [1] (MOLM-13, 96 hour treatment, Non-Complimentary 50 μM), −1; in data set [1] (MOLM-13, 96 hour treatment, Non-Complimentary 75 μM) it was 1; in data set [2] (Non-Complimentary 5 μM) it was −1; in data set [2] (Non-Complimentary 25 μM) it was −1. The “Excess over HSA” value was 0 in data set [1]; 0 in data set [2] (MOLM-13, 48 hours); 0 in data set [3] (KG-1, 48 hours); 0 in data set [3] (KG-1, 96 hours). Also, the “Excess over BLISS” value in data set [2] (MOLM-13, 48 hours) stood at 0; in data set [2] (MOLM-13, 96 hours) it was 0; in data set [3] (KG-1, 48 hours), 0; in data set [3] (KG-1, 96 hours), 0.
